How the values were obtained:
[1] = system: orthotopic human HCC xenograft tumors (SK-Hep1); assay: Photoacoustic imaging of orthotopic human HCC xenograft tumors
Procedure: (§1) Human HCC xenograft tumors were implanted orthotopically in female nude athymic mice. First, ˜5×10^6 SK-Hep1 tumor cells were injected subcutaneously into the hind limb flank. Tumors were then monitored twice a week and allowed to grow to 1-2 cm in diameter for 10-30 days. A small horizontal incision was made below the sternum to expose the liver. The liver was incised with a sharp scalpel horizontally in parallel with the surface of the exposed liver. A piece of the subcutaneous tumor with dimensions of ˜1×1×1 mm^3 was implanted into the incision, and then the site was sealed with absorbable hemostatic material (surgical, Johnson & Johnson). The liver was returned to its original position after confirming hemostasis.
IRDye800-labeled target and control peptides (300 μM in 200 μL PBS) were intravenously injected in mice bearing orthotopical SK-Hep1 tumors. An unlabeled peptide (1.5 mM, 100 μL) was injected 30 min prior to the labeled peptide to compete for binding. ICG (2.46 mg/kg) was injected intravenously as a control. Three-dimensional (3D) images were acquired from 0 to 48 h post injection and reconstructed using PAI tomography system (Nexus 128, Endra) using Iex=774 nm excitation. The photoacoustic signal intensity was measured from the two-dimensional (2D) maximum intensity projection (MIP) images, and the pre-injection images were used for background.
The photoacoustic images were collected to evaluate the time course for peptide uptake, FIG. 14A. […] Indocyanine green (ICG) was also administered (2.46 mg/kg) for comparison.

[2] = system: orthotopic human HCC xenograft tumors; assay: Intraoperative laparoscopic imaging of orthotopic human HCC xenograft tumors; type: in vivo; conditions: […] post-injection, n=8 mice
Procedure: A self-build imaging module was attached to standard surgical laparoscope (#49003 AA, HOPKINS II Straight Forward Telescope 0°, Karl Storz, El Segundo, CA, USA) to collect WL and NIR FL images. WL illumination (MCWHL5, Thorlabs, Newton, NJ, USA) and FL excitation source (λex=785 nm, #iBEAM-SMART-785-S, Toptica Photonics) were coupled into the laparoscope. WL and NIR FL images are collected, simultaneously, by a color CCD camera (#GX-FW-28S5C-C, Point Grey Research, Richmond, BC V6W 1 K7, Canada) and a NIR CCD camera (Orca R-2, Hamamatsu Photonics, Hamamatsu City, Shizuoka Pref., Japan) with a laser power of 1.2 mW, respectively.
After completion of imaging, the mice were euthanized, and the livers were resected. A human specific anti-cytokeratin was stained on tumor sections by IHC to further confirm the implanted human derived HCC tumors, FIG. 16H. Overexpression of CD44 was confirmed by IHC and IF, FIG. 161,J. Representative histology (H&E) of the tumor is shown, FIG. 16K.

[3] = system: orthotopic SK-Hep1 xenograft tumors; assay: Whole body fluorescence imaging of orthotopic human HCC xenograft tumors
Procedure: as §1

human HCC specimens = assay: Peptide validation in human HCC specimens ex vivo (immunofluorescence)
Procedure: A tissue microarray (TMA) of human HCC was generated to investigate specific binding by the CD44 peptide to human HCC. Formalin-fixed, paraffin-embedded (FFPE) sections of human liver were obtained from the archived tissue bank in the Department of Pathology. The specimens were washed 3× in xylene for 3 min, 100% ethanol for 3 min, 95% ethanol for 3 min, 70% ethanol for 3 min, rinsed in H2O for 2 min. Antigen unmasking was performed by boiling the slides in 10 mM sodium citrate buffer with 0.05% Tween at pH 6.0 for 15 min. The slides were cooled to RT, and were washed in H2O 3× for 5 min. Blocking was performed with DAKO protein blocking agent (X0909, DAKO) for 1 hour at RT. The peptides at 1 μM concentration were incubated for 10 min at RT. The sections were washed 3× in PBST for 3 min, and incubated with 400 μL at 1:500 dilution of recombinant anti-CD44 (#ab189524, Abcam) overnight at 4° C. The sections were then washed 3× in PBST for 5 min. A 1:500 dilution of AF488-labeled secondary antibody (goat anti rabbit Alexa Fluor®488) was added to each section and incubated for 1 hour at RT. The secondary antibody solution was removed and washed 3× with PBST for 5 min. The sections were then mounted with ProLong Gold reagent containing DAPI (Invitrogen). The fluorescence images of each specimen were collected using confocal microscopy (SP8, Leica), and the mean fluorescence intensity from each image was measured from 3 boxes with dimensions of 20×20 μm^2 using custom MATLAB software. Regions of saturated image intensities were avoided.

SK-Hep1 cells [4] = assay: Apparent association time constant; design: species or system human; conditions: binding to SK-Hep1 cells
SK-Hep1 cells [5] = system: SK-Hep1 cells
Procedure: The apparent dissociation constant kd for peptide binding to cells was measured to assess the binding affinity. IRDye800-labeled target peptides were serially diluted in PBS at concentrations of 0, 10, 20, 40, 80, 100, and 200 nM. ˜10^5 SK-Hep1 cells were incubated with the peptides at 4° C. for 1 hour, washed with cold PBS, and the mean fluorescence intensities were measured using flow cytometry. The equilibrium dissociation constant kd=1/ka was calculated by performing a least squares fit of the data to the non-linear equation l=(l0+lmaxka [X])/([…]). l0 and lmax are the initial and maximum fluorescence intensities, corresponding to no peptide and at saturation, respectively, and [X] represents the concentration of the bound peptide. Prism 5.0 software (GraphPad Inc) was used to calculate kd.

[6] = system: orthotopic human HCC xenograft tumors and major organs; assay: Peptide biodistribution in tumor-bearing mice; type: in vivo
Source text: The animals were euthanized at peak uptake after intravenous injection of the target and control peptides. Major organs, including heart, spleen, lung, liver, brain, stomach, kidney, intestine, were resected and exposed for white light and fluorescence imaging to measure peptide biodistribution. White light and NIR fluorescence images were collected from the major organs, FIG. 17.

[7] = Animal necropsy (histology, hematology); type: in vivo, mice; conditions: 48 hours after systemic administration
Procedure: Whole blood was collected for evaluation of hematology and chemistry. Liver, kidney, heart, lung, spleen, stomach, intestine, and brain were harvested and submitted for routine histology (H&E). All slides were evaluated by a liver pathologist.

SK-Hep1 cells [8] = assay: MTT cytotoxicity assay; type: cell-based, human; conditions: up to 200 μg/mL, 24 hours
Procedure: The CD44-binding and control peptides were serially diluted over a range of concentrations and incubated with SK-Hep1 cells seeded in 96-well plates for 24 hours. The media was then removed, and MTT solution (100 μL, 0.5 mg/mL) was added. After 4 hours for incubation, the MTT solution was removed, and 150 μL of DMSO was added to each well to solubilize formazan crystals produced by living cells. Absorbance at Aabs=570 (test) and 630 nm (reference) was measured using a plate reader (VersaMax™ Tunable Microplate Reader). The half-maximum inhibitory concentration (IC50) was measured.
An MTT assay was performed to evaluate the cytotoxicity of CD44 peptides. Peptides were incubated with SK-Hep1 cells in increasing concentrations up to 200 μg/mL for 24 hours.

SK-Hep1 cells (CD44+) = assay: Confocal fluorescence microscopy of binding to SK-Hep1 cells; type: cell-based, human
Procedure: The cells were washed with PBS 1× and incubated with 4 μM of either target or control peptide for 3 min. The cells were then washed 3× in PBS, fixed with 4% paraformaldehyde (PFA) for 8 min, washed 3× with PBS then incubated with 2% BSA, 1% goat serum in PBS for 30 min. […] Confocal fluorescence images were collected on Leica SP8 confocal microscope using a 63× oil-immersion objective. Fluorescence intensities were quantified using custom MATLAB (Mathworks) software.

[9] = system: CD44 downstream signaling (pAKT, pErk1/2); assay: Western blot of CD44 downstream cell signaling; type: cell-based, human; conditions: 4 or 300 μM, 15 min, SK-Hep1 cells
Procedure: Western blots were performed to evaluate markers for activation of downstream cell signaling, FIG. 11. SK-Hep1 cells were incubated with either hyaluronan (HA) or peptide to evaluate activation of downstream signalling after binding to CD44. […] of low molecular weight HA (GLR001, R&D Systems) was added for 15 min. Peptides are added at concentrations of 4 and 300 μM for 15 min. Anti-CD44 antibody (#ab189524, Abcam), anti-AKT (#4691, Cell Signaling), anti-phospho-AKT (#9271, Cell Signaling), anti-ERK1/2 (#ab17942, Abcam,), anti-phospho-ERK1/2 (#ab50011, Abcam), and anti-β-Actin (#4967, Cell Signaling Technology) were used per manufacturer's instructions.

[10] = Serum stability by analytical RP-HPLC; type: in vitro ADME; conditions: mouse serum, up to 24 hours, read-out: half-life T1/2 in serum (converted)
[11] = 1 μM peptide, 10 min, FFPE human sections

Compound: CC1(C)C(/C=C/C=C/C=C/C=C2\N(CCCCS(=O)(=O)O)c3ccc4ccccc4c3C2(C)C)=[N+](CCCCS(=O)(=O)[O-])c2ccc3ccccc3c21 [ICG, Indocyanine green]
- T/B ratio, photoacoustic imaging (mean±SD) ([1]; […] post-injection, intravenous, n=5 mice): 1.39±0.13
- time of peak intensity (uptake) in tumor, photoacoustic ([1]; female, nude athymic, mouse, in vivo, iv): > 24 h
- T/B ratio, laparoscopic fluorescence imaging (mean±SD) [2]: 0.87±0.2
- T/B ratio, whole body fluorescence imaging (mean±SD) ([3]; peak uptake ([…]), intravenous, n=5 mice): 0.46±0.03

Compound: CC(C)C[C@H](NC(=O)[C@H](Cc1ccc(O)cc1)NC(=O)[C@H](CO)NC(=O)[C@H](Cc1c[nH]c2ccccc12)NC(=O)CNC(=O)[C@H](CCCCN)NC(=O)[C@@H](N)Cc1c[nH]c2ccccc12)C(=O)N[C@@H](Cc1c[nH]c2ccccc12)C(=O)N[C@H](C(=O)N[C@@H](CCC(N)=O)C(=O)N[C@@H](CCC(N)=O)C(=O)N[C@@H](C)C(=O)NCC(=O)NCC(=O)NCC(=O)N[C@@H](CO)C(=O)N[C@@H](CSC1CC(=O)N(CCNC(=O)CCCCCN2C(=CC=C3CCCC(C=CC4=[N+](CCCCS(=O)(=O)[O-])c5ccc(S(=O)(=O)O)cc5C4(C)C)=C3Oc3ccc(S(=O)(=O)O)cc3)C(C)(C)c3cc(S(=O)(=O)O)ccc32)C1=O)C(N)=O)[C@@H](C)O (stereo partly drawn) [WKG*-IRDye800]
- fluorescence intensity, HCC (mean±SD) (human HCC specimens; [11]): 1.47±0.50
- fluorescence intensity, adenoma (mean±SD) (human HCC specimens; [11]): 0.93±0.35
- fluorescence intensity, cirrhosis (mean±SD) (human HCC specimens; [11]): 0.67±0.34
- fluorescence intensity, normal human liver (mean±SD) (human HCC specimens; [11]): 0.56±0.21
- binding to the cell surface of HCC, immunofluorescence (human HCC specimens; human HCC sections): strong binding
- apparent association time constant (time) (SK-Hep1 cells [4]): 6.8 min
- apparent association time constant k (SK-Hep1 cells [4]): 0.26 min⁻¹
- improved binding affinity by comparison with previously reported CD44 peptides (SK-Hep1 cells [5]): 3 fold
- Kd (SK-Hep1 cells [5]; read-out: apparent dissociation constant kd, SK-Hep1 cells, 4° C., 1 hour, flow cytometry): 43 nM
- intensity in adjacent normal liver region (mean±SD) ([6]; […] after intravenous injection): 0.92±0.45
- route of clearance ([6]; mouse, in vivo): primarily renal clearance
- acute toxicity, hematology and chemistry ([7]; n=3 mice): No acute peptide toxicity was observed
- toxicity on histology (H&E) of vital organs ([7]; normal healthy mice): No signs of toxicity
- time of return to baseline, photoacoustic ([1]; post intravenous injection): ~24 h
- effect on cell viability (MTT) (SK-Hep1 cells [8]): no effect on cell viability until the highest concentrations were reached
- fluorescence intensity for binding to SK-Hep1 cells compared with Hep 3B cells (SK-Hep1 cells (CD44+); SK-Hep1 (CD44+) vs Hep 3B (CD44−)): Significantly greater
- Pearson correlation coefficient ρ of binding co-localization with anti-CD44-AF488 (SK-Hep1 cells (CD44+); merged image, SK-Hep1 cell surface): 0.81
- effect on CD44 downstream signaling (phosphorylation of AKT and Erk1/2) [9]: no effect
- time of return to baseline, whole body fluorescence ([3]; post intravenous injection): ~24 h
- half-life [10]: 5.1 h

— US20250073355A1, “CD44-BINDING PEPTIDE REAGENTS AND METHODS” (THE REGENTS OF THE UNIVERSITY OF MICHIGAN, priority 2021, published 2025)
